This passage reports IC50 and inhibition results from paper PMC5962679 (Frontiers in Cellular and Infection Microbiology, 2018).

Among the targets are HLA-DRB1*1302 (Homo sapiens, UniProt P01903+P01911, A100E/A169T/K41T/L162R/M171V/P40S/Q125H/Q178H/Q39Y/Q99D/R42S/S66N/T262R/V115G/W38E/Y61H); HLA-DRB1*1101 (Homo sapiens, UniProt P01903+P01911, A100R/A169T/A87E/I96F/K41T/L162R/M171V/P40S/Q125H/Q178H/Q39Y/Q99D/R42S/S66Y/T262R/V115G/W38E); HLA-DRB1*0701 (Homo sapiens, UniProt P01903+P01911, A100R/A102G/A103Q/D57E/D86V/E43K/F76Y/K127E/L162R/M171V/P40G/Q125H/Q99D/R33Q/R42Y/R54Q/S133A/S66F/T210M/V115G/Y107V/Y59L/Y89S).

What all share (test): biochemical
Common to all, as to assay type: binding
What all share (conditions): for inhibition at 250 µM: 24 h, read-out: Binding percentage

Another assay addresses T1, HLA-DRB1*0401 (Homo sapiens, UniProt P01903+P01911, A100K/A169T/F76Y/I96L/K127E/L162R/M171V/N62H/P40V/Q125Y/R42H/S133A/S149N/S66Y/V115G/V209L/W38E).
T1 construct: homozygous lymphoblastoid B-cell lines (International Histocompatibility Working Group); host or cells: human HLA-DRB1*0401 homozygous lymphoblastoid B-cell line

Ends that are not written are not given here.

HLA-DRB1*1101, sequence (P01903 26-254 limits assumed, other chains not shown): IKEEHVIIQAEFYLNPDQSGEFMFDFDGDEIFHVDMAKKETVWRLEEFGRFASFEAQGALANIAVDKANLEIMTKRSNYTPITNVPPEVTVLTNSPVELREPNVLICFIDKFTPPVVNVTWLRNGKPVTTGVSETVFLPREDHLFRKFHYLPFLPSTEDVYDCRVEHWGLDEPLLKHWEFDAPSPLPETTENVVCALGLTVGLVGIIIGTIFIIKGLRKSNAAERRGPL
HLA-DRB1*1302, sequence (P01903 26-254 limits assumed, other chains not shown): as above

What is called IC50 is the concentration needed to halve the response being measured. A high value points to a need for much substance. At HLA-DRB1*0401, DKSFISEANSFRNEE [compound 39149] came in with an IC50 of 26.3 µM. For the same sequence, the inhibition at 250 µM at HLA-DRB1*0401 is 85.8%; at HLA-DRB1*1302 it was 33.5%; on HLA-DRB1*1101, 36.5%; at HLA-DRB1*0701, 42.8%.
KLKYIFKRRKTMKKK [compound 39151]: the IC50 at HLA-DRB1*0401 was determined as 40 µM; against HLA-DRB1*1101, 51.1 µM. The inhibition at 250 µM at HLA-DRB1*0401 stood at 65.3%; at HLA-DRB1*1302, 13.1%; at HLA-DRB1*1101, 78.5%; at HLA-DRB1*0701, 36%.
For LKPFYSLETMLMANS [compound 39147], the IC50 at HLA-DRB1*0401 was 4.6 µM; against HLA-DRB1*1302, 79 µM; against HLA-DRB1*1101, 23 µM; at HLA-DRB1*0701, 26 µM. Also, the inhibition at 250 µM at HLA-DRB1*0401 came to 92.6%; at HLA-DRB1*1302 it was 63%; at HLA-DRB1*1101 it was 79.3%; on HLA-DRB1*0701, 83.2%.
As to NVRKFFLNDVSSIRH [compound 39148], the IC50 on HLA-DRB1*0401 was 11.9 µM; against HLA-DRB1*1302, 7.4 µM; at HLA-DRB1*1101 it was 83.4 µM; against HLA-DRB1*0701 it was 39.7 µM. Also, the inhibition at 250 µM at HLA-DRB1*0401 was determined as 83%; at HLA-DRB1*1302, 94.2%; on HLA-DRB1*1101, 73.8%; at HLA-DRB1*0701 it was 79.9%.
Take NYEIYIASSSNIYLM [compound 39046]: the IC50 amounted to 28.4 µM at HLA-DRB1*0401, 29.6 µM on HLA-DRB1*1302, 120 µM against HLA-DRB1*1101 and 23.3 µM against HLA-DRB1*0701. For the same sequence, the inhibition at 250 µM on HLA-DRB1*0401 came out at 91.8%; at HLA-DRB1*1302, 92.8%; on HLA-DRB1*1101 it was 82.9%; at HLA-DRB1*0701, 91.5%.
Take QTAFRKFFKKIISLG [compound 39150]: the IC50 was found to be 33.7 µM against HLA-DRB1*0401, 83.4 µM against HLA-DRB1*1101 and 51.8 µM against HLA-DRB1*0701. Besides, the inhibition at 250 µM on HLA-DRB1*0401 worked out at 83.6%; on HLA-DRB1*1302, 7.7%; on HLA-DRB1*1101, 87.6%; on HLA-DRB1*0701, 67.2%.
Take TPIIVKYDNTHAKNR [compound 39048]: the IC50 against HLA-DRB1*0401 came to 11.9 µM. The inhibition at 250 µM on HLA-DRB1*0401 was determined as 90.7%; on HLA-DRB1*1302 it was 3.3%; on HLA-DRB1*1101, 16.8%; at HLA-DRB1*0701 it was 10.5%.
